From the NIST ThermoML archive (doi:10.1021/je034078h) come the findings set out here.

The data set is described as follows: xn = mol fraction of the nth substance listed. The following applies: 101.3 kPa, Liquid; for viscosity: Capillary tube (Ostwald / Ubbelohde) method; for electrical conductivity: Shanghai Precision & Scientific Instrument Co., LTD (DDS-307).

Structures are written as SMILES. Numbers after ± are expanded uncertainties.

Usually viscosity stands for the resistance of a fluid to flow. `CCCCn1cc[n+](C)c1.F[P-](F)(F)(F)(F)F` [1-butyl-3-methylimidazolium hexafluorophosphate] + CCO: the viscosity by setting is: (288.15 K, x2 = 0.2) 200.6 ± 8.7 mPa·s; (288.15 K, x2 = 0.48) 48 ± 1.7 mPa·s; (293.15 K, x2 = 0.2) 148.1 ± 6.2 mPa·s; (293.15 K, x2 = 0.48) 37.7 ± 1.3 mPa·s; (298.15 K, x2 = 0.2) 113.7 ± 4.5 mPa·s; (298.15 K, x2 = 0.48) 30.1 ± 1 mPa·s. The viscosity reads like this: (303.15 K, x2 = 0.2) 88.4 ± 3.4 mPa·s; (303.15 K, x2 = 0.48) 24.8 ± 0.8 mPa·s; (308.15 K, x2 = 0.2) 71.5 ± 2.7 mPa·s; (308.15 K, x2 = 0.48) 21 ± 0.7 mPa·s. Besides, the electrical conductivity was determined as 0.00302 ± 0.00018 S/m (288.15 K, x2 = 0.2); 0.0068 ± 0.00041 S/m (288.15 K, x2 = 0.48); 0.00336 ± 0.0002 S/m (293.15 K, x2 = 0.2); 0.00733 ± 0.00044 S/m (293.15 K, x2 = 0.48); 0.0038 ± 0.00023 S/m (298.15 K, x2 = 0.2); 0.00798 ± 0.00048 S/m (298.15 K, x2 = 0.48). The electrical conductivity is, setting by setting: (303.15 K, x2 = 0.2) 0.0043 ± 0.00026 S/m; (303.15 K, x2 = 0.48) 0.00863 ± 0.00052 S/m; (308.15 K, x2 = 0.2) 0.00475 ± 0.00029 S/m; (308.15 K, x2 = 0.48) 0.00933 ± 0.00056 S/m.
Consider `CCCCn1cc[n+](C)c1.F[P-](F)(F)(F)(F)F` [1-butyl-3-methylimidazolium hexafluorophosphate] + O, for which the viscosity came to 166.4 ± 9.4 mPa·s (293.15 K, x2 = 0.2); 128.7 ± 5.2 mPa·s (298.15 K, x2 = 0.2); 99.2 ± 3.9 mPa·s (303.15 K, x2 = 0.2); 78.2 ± 3.4 mPa·s (308.15 K, x2 = 0.2). Also, the electrical conductivity runs as follows: (293.15 K, x2 = 0.2) 0.0033 ± 0.0002 S/m; (298.15 K, x2 = 0.2) 0.00372 ± 0.00022 S/m; (303.15 K, x2 = 0.2) 0.00429 ± 0.00026 S/m; (308.15 K, x2 = 0.2) 0.00478 ± 0.00029 S/m.
For the molecule `CCCCn1cc[n+](C)c1.F[P-](F)(F)(F)(F)F` [1-butyl-3-methylimidazolium hexafluorophosphate] + CC(C)=O, the viscosity is 165 ± 6.9 mPa·s (288.15 K, x2 = 0.2); 25.1 ± 0.9 mPa·s (288.15 K, x2 = 0.48); 127 ± 5.1 mPa·s (293.15 K, x2 = 0.2); 21.2 ± 0.7 mPa·s (293.15 K, x2 = 0.48); 100.2 ± 3.9 mPa·s (298.15 K, x2 = 0.2); 18.2 ± 0.6 mPa·s (298.15 K, x2 = 0.48). Also, the viscosity is given as 79.8 ± 3 mPa·s (303.15 K, x2 = 0.2); 16 ± 0.5 mPa·s (303.15 K, x2 = 0.48); 64.1 ± 2.4 mPa·s (308.15 K, x2 = 0.2); 13.8 ± 0.5 mPa·s (308.15 K, x2 = 0.48). Also, the electrical conductivity was 0.00298 ± 0.00018 S/m (288.15 K, x2 = 0.2); 0.00925 ± 0.00056 S/m (288.15 K, x2 = 0.48); 0.00342 ± 0.00021 S/m (293.15 K, x2 = 0.2); 0.00965 ± 0.00058 S/m (293.15 K, x2 = 0.48); 0.00375 ± 0.00023 S/m (298.15 K, x2 = 0.2); 0.0102 ± 0.00061 S/m (298.15 K, x2 = 0.48). In addition, the electrical conductivity is 0.00429 ± 0.00026 S/m (303.15 K, x2 = 0.2); 0.0106 ± 0.00064 S/m (303.15 K, x2 = 0.48); 0.00467 ± 0.00028 S/m (308.15 K, x2 = 0.2); 0.011 ± 0.00066 S/m (308.15 K, x2 = 0.48).
